The results in this text go back to patent publication US20240208937A1, “Compounds and Their Use for Treatment of Hemoglobinopathies” (Bristol-Myers Squibb Company, priority 2022, published 2024).

Assay type in all cases: cell-based
The target of assay [1] is WIZ (Widely interspaced zinc finger) (Homo sapiens (Human), UniProt O95785+Q96SW2). Description: HUDEP-2 WIZ HiBiT degradation assay. The conditions noted are these: HUDEP-2 WIZ HiBiT cells, 24 hours treatment, luminescence; for DC50: read-out: WIZ EC50. The essentials:
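HiBiT-tagged WIZ HUDEP-2 cells were seeded at 1.0×10^6 cells/ml in supplemented StemSpan SFEM II with doxycycline and treated 24 h at 37 °C. Remaining tagged protein was read by Nano-Glo HiBiT lytic luminescence. EC50 and Y-min were fitted after DMSO normalization across 10 concentrations, 10 to 0.0005 μM.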
In general terms: With HiBiT, luminescence reflects the tagged protein that the partner subunit can reach.

The subject of assay [2] is fetal hemoglobin (HbF) in GCSF-mobilized human CD34+ cells. Put plainly: HbF Induction Assay. Conditions: 168 h; compound 1 μM, 7 days, erythroid-differentiated human CD34+ cells, flow cytometry; DMSO baseline 15% HbF positive cells. How it is done:
The expansion, differentiation, and maturation of GCSF-mobilized human CD34^+ (STEMCELL Technologies Inc.) cells towards erythroid lineage cells were performed using a two-phase liquid culture model (Moutouh-de Parseval L A, el al. Pomalidomide and lenalidomide regulate erythropoiesis and fetal hemoglobin production in human CD34+ cells. J Clin Invest. 2008 January; 118(1):248-58). In the first phase, GCSF-mobilized human CD34^+ cells were cultured using StemSpan™-XF (STEMCELL Technologies Inc.) media supplemented with 1×BIT 9500, Penicillin-Streptomycin (50 U/mL), 100 ng/mL recombinant human (rh) SCF, 100 ng/mL rh Flt3-L, 20 ng/mL rh IL-3 and 10 ng/mL rh EPO and the growth of cells maintained in exponential phase for 7 days at 37° C. with 5% CO2 to support expansion and progenitor differentiation prior the second phase and treatment with compounds. In the second phase, culture media was changed to StemSpan™-XF media supplemented with 1×BIT 9500, Penicillin-Streptomycin (50 U/mL), 50 ng/mL rh SCF and 40 ng/mL rh EPO to promote further differentiation and maturation of the erythrocytes and to initiate treatment with compounds. Compounds were dispensed in duplicate at a final concentration of 1 μM in a final DMSO amount of 0.1%. Fresh compound was reapplied, and cell density was kept constant every 2 days. After 7 days, the cells were assessed for viability and fetal hemoglobin expression using flow cytometry. For viability analysis, eBioscience™ Fixable Viability Dye eFluor™ 780 (1:1000, eBioscience; Cat #65-0865-14) was added to the cells and kept in the dark for 10 minutes. For analysis of fetal hemoglobin (HbF), cells were fixed and permeabilized using Fixation Buffer (BioLegend; Cat #420801 and Intracellular staining permeabilization buffer (BioLegend, Cat #420201) following manufacturer's instructions. During permeabilization step, cells were stained with PE-labelled Mouse Anti-Human Fetal Hemoglobin (1:10, clone 2D12; BD Biosciences, Cat #BDB560041) incubated at room temperature for 20 minutes and protected from light. PE-labelled Mouse anti-IgG k, (1:10 clone MOPC-21; BD Biosciences, Cat# BDB551436) was used as an isotype control.
Viability, cell count, and fetal hemoglobin (HbF) levels were measured using an Attune NXT flow cytometer (Thermofisher) and the data analyzed using the FCS express software (De Novo Software). In Table 1 below, the effects of compounds of formula (I), formula (I′), formula (II), formula (II′), and formula (III) on % viable cells, viable cell count, on the % HbF positive cells and the median fluorescent intensity (MFI) of the HbF positive cell population compared to the DMSO controls can be viewed. All gates were set using the isotype negative control. The baseline % HbF positive cells for DMSO-treated control cells was 15%. Compounds of formula (I), formula (I′), formula (II), formula (II′), and formula (III) having HbF induction between 66% and 100% are level A. Compounds of formula (I), formula (I′), formula (II), formula (II′), and formula (III) having HbF induction between 33% and 66% are level B. Compounds of formula (I), formula (I′), formula (II), formula (II′), and formula (III) having HbF induction % less than 33% are level C. For certain compounds of formula (I), formula (I′), formula (II), formula (II′), and formula (III) % HbF induction values 0-33% (activity level C), between 33% and 66% (activity level B), and between 67% and 100% (activity level A) are shown in Table 2 below.

Assay [3] deals with ZBTB7A (Zinc Finger And BTB Domain Containing 7A) (Homo sapiens (Human), UniProt O95365+Q96SW2). Description: HUDEP-2 ZBTB7A HiBiT degradation assay. The conditions noted are these: HUDEP-2 ZBTB7A HiBiT cells, 24 hours treatment, luminescence; for DC50: read-out: ZBTB7A EC50. The essentials:
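HUDEP-2 cells carrying HiBiT-tagged ZBTB7A, grown 48 h in IMDM with EPO, SCF, insulin, transferrin, heparin, dox and 5% human plasma, then seeded at 1.0×10^6 cells/ml on pre-dispensed compound (10 concentrations, 10–0.0005 μM) for 24 h at 37 °C. Lytic HiBiT luminescence, DMSO-normalised, gave EC50 and Y-min.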

Chain of ZBTB7A (Zinc Finger And BTB Domain Containing 7A) (O95365 whole entry, the tested form may be a part): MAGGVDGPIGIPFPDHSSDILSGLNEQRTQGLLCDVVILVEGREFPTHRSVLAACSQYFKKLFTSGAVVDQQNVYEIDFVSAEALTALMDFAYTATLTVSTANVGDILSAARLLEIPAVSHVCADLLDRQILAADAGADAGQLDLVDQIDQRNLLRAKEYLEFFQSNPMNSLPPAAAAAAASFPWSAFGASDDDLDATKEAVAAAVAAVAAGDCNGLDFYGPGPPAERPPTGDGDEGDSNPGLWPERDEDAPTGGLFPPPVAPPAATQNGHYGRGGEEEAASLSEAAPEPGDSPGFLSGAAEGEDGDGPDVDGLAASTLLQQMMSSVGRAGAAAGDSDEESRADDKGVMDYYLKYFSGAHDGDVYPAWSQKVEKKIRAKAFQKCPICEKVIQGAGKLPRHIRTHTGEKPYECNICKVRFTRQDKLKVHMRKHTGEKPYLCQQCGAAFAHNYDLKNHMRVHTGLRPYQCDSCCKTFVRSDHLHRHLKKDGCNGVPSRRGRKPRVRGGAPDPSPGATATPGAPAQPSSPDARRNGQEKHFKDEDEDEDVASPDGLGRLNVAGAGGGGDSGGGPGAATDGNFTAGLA
Chain of ZBTB7A (Zinc Finger And BTB Domain Containing 7A) (Q96SW2 whole entry, the tested form may be a part): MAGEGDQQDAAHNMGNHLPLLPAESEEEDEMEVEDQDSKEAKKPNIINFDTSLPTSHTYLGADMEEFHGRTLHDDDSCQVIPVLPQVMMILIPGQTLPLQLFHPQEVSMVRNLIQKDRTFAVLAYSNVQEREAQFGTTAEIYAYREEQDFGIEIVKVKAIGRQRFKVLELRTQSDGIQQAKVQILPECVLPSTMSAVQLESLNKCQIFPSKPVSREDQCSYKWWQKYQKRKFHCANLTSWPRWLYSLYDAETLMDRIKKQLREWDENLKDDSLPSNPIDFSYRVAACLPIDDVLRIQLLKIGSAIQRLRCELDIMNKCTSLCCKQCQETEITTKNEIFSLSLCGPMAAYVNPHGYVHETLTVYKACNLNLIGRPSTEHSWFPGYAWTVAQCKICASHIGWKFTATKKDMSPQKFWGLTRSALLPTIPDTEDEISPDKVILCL
Chain of ZBTB7A (Zinc Finger And BTB Domain Containing 7A) (Q16531 whole entry partner, the tested form may be a part): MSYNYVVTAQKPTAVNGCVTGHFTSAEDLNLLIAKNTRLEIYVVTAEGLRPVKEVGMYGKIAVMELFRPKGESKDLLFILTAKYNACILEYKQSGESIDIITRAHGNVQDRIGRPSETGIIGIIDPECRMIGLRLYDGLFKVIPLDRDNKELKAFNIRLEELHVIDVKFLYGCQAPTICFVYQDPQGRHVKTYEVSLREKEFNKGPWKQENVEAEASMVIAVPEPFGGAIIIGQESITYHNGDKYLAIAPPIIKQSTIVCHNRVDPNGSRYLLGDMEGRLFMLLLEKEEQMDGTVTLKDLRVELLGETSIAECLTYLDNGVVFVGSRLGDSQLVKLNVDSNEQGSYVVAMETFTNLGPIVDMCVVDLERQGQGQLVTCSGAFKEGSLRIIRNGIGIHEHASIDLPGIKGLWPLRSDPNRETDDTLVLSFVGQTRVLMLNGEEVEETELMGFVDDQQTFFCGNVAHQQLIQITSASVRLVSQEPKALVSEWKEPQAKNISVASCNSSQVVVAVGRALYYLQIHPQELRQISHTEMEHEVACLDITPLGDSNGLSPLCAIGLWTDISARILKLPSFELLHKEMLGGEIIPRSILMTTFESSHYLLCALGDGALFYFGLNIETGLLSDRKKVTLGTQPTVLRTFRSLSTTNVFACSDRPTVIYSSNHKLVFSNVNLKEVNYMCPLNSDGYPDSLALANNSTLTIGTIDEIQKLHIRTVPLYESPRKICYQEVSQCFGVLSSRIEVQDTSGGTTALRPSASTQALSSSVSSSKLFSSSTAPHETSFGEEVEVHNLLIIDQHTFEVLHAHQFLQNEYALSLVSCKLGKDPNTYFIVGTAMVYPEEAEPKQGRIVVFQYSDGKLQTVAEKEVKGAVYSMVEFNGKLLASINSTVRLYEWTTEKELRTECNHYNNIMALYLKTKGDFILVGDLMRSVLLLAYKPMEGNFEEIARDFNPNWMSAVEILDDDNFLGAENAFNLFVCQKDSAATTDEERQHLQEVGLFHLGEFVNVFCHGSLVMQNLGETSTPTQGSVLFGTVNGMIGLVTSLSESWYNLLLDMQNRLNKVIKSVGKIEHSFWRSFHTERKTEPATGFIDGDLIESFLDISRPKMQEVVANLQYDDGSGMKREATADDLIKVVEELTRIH
Chain of WIZ (Widely interspaced zinc finger) (O95785 whole entry): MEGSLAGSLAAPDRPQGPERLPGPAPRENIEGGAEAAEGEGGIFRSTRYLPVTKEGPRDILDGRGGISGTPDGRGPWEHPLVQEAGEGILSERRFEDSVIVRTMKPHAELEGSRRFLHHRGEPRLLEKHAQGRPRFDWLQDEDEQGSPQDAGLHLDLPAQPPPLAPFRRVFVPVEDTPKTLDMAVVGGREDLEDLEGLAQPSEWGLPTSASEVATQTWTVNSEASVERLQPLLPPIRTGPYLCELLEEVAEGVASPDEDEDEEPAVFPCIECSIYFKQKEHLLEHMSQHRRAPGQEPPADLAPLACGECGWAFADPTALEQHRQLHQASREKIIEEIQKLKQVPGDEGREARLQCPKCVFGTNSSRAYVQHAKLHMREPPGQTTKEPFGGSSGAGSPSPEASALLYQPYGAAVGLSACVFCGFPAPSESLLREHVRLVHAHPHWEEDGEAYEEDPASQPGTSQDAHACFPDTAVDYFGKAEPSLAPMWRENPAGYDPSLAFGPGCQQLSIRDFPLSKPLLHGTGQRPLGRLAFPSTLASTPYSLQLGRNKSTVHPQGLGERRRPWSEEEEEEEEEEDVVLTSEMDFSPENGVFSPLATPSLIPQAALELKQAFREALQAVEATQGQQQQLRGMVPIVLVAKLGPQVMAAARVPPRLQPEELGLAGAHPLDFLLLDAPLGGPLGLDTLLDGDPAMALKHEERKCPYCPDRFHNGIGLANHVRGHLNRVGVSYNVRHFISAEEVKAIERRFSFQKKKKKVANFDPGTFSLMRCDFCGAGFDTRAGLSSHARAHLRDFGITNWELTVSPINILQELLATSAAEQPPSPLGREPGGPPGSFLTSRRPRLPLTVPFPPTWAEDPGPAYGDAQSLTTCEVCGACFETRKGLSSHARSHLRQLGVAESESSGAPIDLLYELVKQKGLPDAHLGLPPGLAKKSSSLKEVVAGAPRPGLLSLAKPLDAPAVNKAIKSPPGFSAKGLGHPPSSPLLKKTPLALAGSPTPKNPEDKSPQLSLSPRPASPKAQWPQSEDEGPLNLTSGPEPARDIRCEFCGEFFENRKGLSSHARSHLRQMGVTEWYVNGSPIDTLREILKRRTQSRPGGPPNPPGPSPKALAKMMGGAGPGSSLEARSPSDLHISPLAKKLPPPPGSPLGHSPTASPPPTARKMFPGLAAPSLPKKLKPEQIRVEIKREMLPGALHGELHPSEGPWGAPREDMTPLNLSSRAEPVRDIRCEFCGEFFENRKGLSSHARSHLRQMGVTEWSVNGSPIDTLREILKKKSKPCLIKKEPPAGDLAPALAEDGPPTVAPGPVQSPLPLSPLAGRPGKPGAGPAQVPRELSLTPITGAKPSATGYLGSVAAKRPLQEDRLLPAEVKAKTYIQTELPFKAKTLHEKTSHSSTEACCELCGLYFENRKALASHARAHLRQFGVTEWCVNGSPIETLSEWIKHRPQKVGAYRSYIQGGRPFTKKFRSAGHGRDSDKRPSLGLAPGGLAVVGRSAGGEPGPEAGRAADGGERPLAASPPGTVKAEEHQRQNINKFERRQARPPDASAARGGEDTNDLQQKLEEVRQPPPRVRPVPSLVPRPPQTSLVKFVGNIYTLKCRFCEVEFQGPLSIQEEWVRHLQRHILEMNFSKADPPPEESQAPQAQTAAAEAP
Chain of WIZ (Widely interspaced zinc finger) (Q96SW2 whole entry): as the sequence (Q96SW2 whole entry, the tested form may be a part) above
Chain of WIZ (Widely interspaced zinc finger) (Q16531 whole entry partner): as the sequence (Q16531 whole entry partner, the tested form may be a part) above

The EC50 is the concentration that produces a half-maximal response. Regarding `Cn1ncc2cc(Nc3cccc4c3C(=O)N(C3CCC(=O)NC3=O)C4=O)c(Oc3cccc(Cl)c3)cc21` (stereo not drawn) [Compound 25, 4-((6-(3-chlorophenoxy)-1-methyl-1H-indazol-5-yl)amino)-2-(2,6-dioxopiperidin-3-yl)isoindoline-1,3-dione], in assay [1], the DC50 fell in the range of 10 to 100 nM. Also, the activation at 1 µM in assay [2] was in the range of 33 to 66%. The compound further displayed an EC50 in assay [3] of more than 100 nM.

Regarding `Cc1cc(-c2cc3c(cc2Nc2cccc4c2C(=O)N(C2CCC(=O)NC2=O)C4=O)c(C)nn3C)ccn1` (stereo not drawn) [Compound 3, 4-((1,3-dimethyl-6-(2-methylpyridin-4-yl)-1H-indazol-5-yl)amino)-2-(2,6-dioxopiperidin-3-yl)isoindoline-1,3-dione], in assay [1], the DC50 was in the range of 10 to 100 nM. Moreover, the activation at 1 µM in assay [2] lay within 66 to 100%. The EC50 in assay [3] is less than 30 nM.

Consider `Cn1ncc2cc(Nc3cccc4c3C(=O)N(C3CCC(=O)NC3=O)C4=O)c(C3CCOCC3)cc21` (stereo not drawn) [Compound 22, 2-(2,6-dioxopiperidin-3-yl)-4-((1-methyl-6-(tetrahydro-2H-pyran-4-yl)-1H-indazol-5-yl)amino)isoindoline-1,3-dione], for which, in assay [1], the DC50 lay in the range of 10 to 100 nM. Moreover, in assay [2], the activation at 1 µM is 33 to 66%. Besides, in assay [3], the EC50 was more than 100 nM.

Turning to `COc1cc(-c2ccccc2)c(Nc2cccc3c2C(=O)N(C2CCC(=O)NC2=O)C3=O)cn1` (stereo not drawn) [Compound 30, 2-(2,6-dioxopiperidin-3-yl)-4-((6-methoxy-4-phenylpyridin-3-yl)amino)isoindoline-1,3-dione], the DC50 in assay [1] was 10 to 100 nM; in assay [3] it was 30 to 100 nM. Further, the activation at 1 µM in assay [2] was less than 33%.

Take `Cc1nccc(-c2cc3c(cnn3C)cc2Nc2cccc3c2C(=O)N(C2CCC(=O)NC2=O)C3=O)c1C` (stereo not drawn) [Compound 29, 4-((6-(2,3-dimethylpyridin-4-yl)-1-methyl-1H-indazol-5-yl)amino)-2-(2,6-dioxopiperidin-3-yl)isoindoline-1,3-dione]: in assay [1], the DC50 lay within 10 to 100 nM. In addition, the activation at 1 µM in assay [2] is less than 33%. In assay [3], this compound returned an EC50 of more than 100 nM.

On to `Cc1cc(-c2cc3c(cnn3C)cc2Nc2cccc3c2C(=O)N(C2CCC(=O)NC2=O)C3=O)ccn1` (stereo not drawn) [Compound 19, 2-(2,6-dioxopiperidin-3-yl)-4-((1-methyl-6-(2-methylpyridin-4-yl)-1H-indazol-5-yl)amino)isoindoline-1,3-dione], for which, in assay [1], the DC50 was more than 100 nM. This compound also had an activation at 1 µM in assay [2] of 66 to 100%. Besides, the EC50 in assay [3] is more than 100 nM.

Take `COc1ccc(-c2cc3c(cnn3C)cc2Nc2cccc3c2C(=O)N(C2CCC(=O)NC2=O)C3=O)cc1F` (stereo not drawn) [Compound 14, 2-(2,6-dioxopiperidin-3-yl)-4-((6-(3-fluoro-4-methoxyphenyl)-1-methyl-1H-indazol-5-yl)amino)isoindoline-1,3-dione]: the DC50 in assay [1] is more than 100 nM. The compound also displayed an activation at 1 µM in assay [2] of 66 to 100%. The compound further showed an EC50 in assay [3] of more than 100 nM.

Regarding `O=C1CCC(N2C(=O)c3cccc(Nc4cc5cnn(C6CCOCC6)c5cc4-c4ccnc(C(F)F)c4)c3C2=O)C(=O)N1` (stereo not drawn) [Compound 11, 4-((6-(2-(difluoromethyl)pyridin-4-yl)-1-(tetrahydro-2H-pyran-4-yl)-1H-indazol-5-yl)amino)-2-(2,6-dioxopiperidin-3-yl)isoindoline-1,3-dione], the DC50 in assay [1] is more than 100 nM. In assay [2], the activation at 1 µM was in the range of 66 to 100%. This compound had an EC50 in assay [3] of more than 100 nM.

Consider `Cc1nccc(-c2cc3c(cc2Nc2cccc4c2C(=O)N(C2CCC(=O)NC2=O)C4=O)N(C)C(=O)CC3)c1Cl` (stereo not drawn) [Compound 47, 4-((6-(3-chloro-2-methylpyridin-4-yl)-1-methyl-2-oxo-1,2,3,4-tetrahydroquinolin-7-yl)amino)-2-(2,6-dioxopiperidin-3-yl)isoindoline-1,3-dione], for which the EC50 is less than 10 nM in assay [1] and less than 30 nM in assay [3]. Also, in assay [2], the activation at 1 µM was 66 to 100%.

Take `Cc1cc(-c2cc3c(cc2Nc2cccc4c2C(=O)N(C2CCC(=O)NC2=O)C4=O)N(C)C(=O)CC3)cc(C)n1` (stereo not drawn) [Compound 48, 4-((6-(2,6-dimethylpyridin-4-yl)-1-methyl-2-oxo-1,2,3,4-tetrahydroquinolin-7-yl)amino)-2-(2,6-dioxopiperidin-3-yl)isoindoline-1,3-dione]: the EC50 in assay [1] is less than 10 nM; in assay [3], less than 30 nM. The activation at 1 µM in assay [2] lay within 66 to 100%.

For the compound `Cc1cc(-c2cc3c(cnn3C)cc2Nc2cccc3c2C(=O)N([C@H]2CCC(=O)NC2=O)C3=O)ccn1` [Compound 42, (S)-2-(2,6-dioxopiperidin-3-yl)-4-((1-methyl-6-(2-methylpyridin-4-yl)-1H-indazol-5-yl)amino)isoindoline-1,3-dione], the DC50 in assay [1] was more than 100 nM; in assay [3], 30 to 100 nM. Besides, in assay [2], the activation at 1 µM lay in the range of 33 to 66%.

`COc1cc2c(cnn2C2CCOCC2)cc1Nc1cccc2c1C(=O)N(C1CCC(=O)NC1=O)C2=O` (stereo not drawn) [Compound 18, 2-(2,6-dioxopiperidin-3-yl)-4-((6-methoxy-1-(tetrahydro-2H-pyran-4-yl)-1H-indazol-5-yl)amino)isoindoline-1,3-dione] showed a 50% effective concentration (EC50) in assay [1] of less than 10 nM. Moreover, the activation at 1 µM in assay [2] lay in the range of 66 to 100%. Moreover, the DC50 in assay [3] fell in the range of 30 to 100 nM.

In the case of `Cn1ncc2cc(Nc3cccc4c3C(=O)N(C3CCC(=O)NC3=O)C4=O)c(Oc3ccc(F)cc3)cc21` (stereo not drawn) [Compound 17, 2-(2,6-dioxopiperidin-3-yl)-4-((6-(4-fluorophenoxy)-1-methyl-1H-indazol-5-yl)amino)isoindoline-1,3-dione], the DC50 fell in the range of 10 to 100 nM in assay [1] and 30 to 100 nM in assay [3]. The activation at 1 µM in assay [2] lay in the range of 66 to 100%.

Turning to `Cc1cc(-c2cc3c(cc2Nc2cccc4c2C(=O)N(C2CCC(=O)NC2=O)C4=O)N(C)C(=O)CC3)ccn1` (stereo not drawn) [Compound 43, 2-(2,6-dioxopiperidin-3-yl)-4-((1-methyl-6-(2-methylpyridin-4-yl)-2-oxo-1,2,3,4-tetrahydroquinolin-7-yl)amino)isoindoline-1,3-dione], the EC50 in assay [1] was less than 10 nM; in assay [3], less than 30 nM. This compound also displayed an activation at 1 µM in assay [2] of 66 to 100%.

On to `Cc1cc(-c2cc3c(cc2Nc2cccc4c2C(=O)N([C@H]2CCC(=O)NC2=O)C4=O)n(C)c(=O)n3C)cc(C)n1` [Compound 40, (S)-4-((6-(2,6-dimethylpyridin-4-yl)-1,3-dimethyl-2-oxo-2,3-dihydro-1H-benzo[d]imidazol-5-yl)amino)-2-(2,6-dioxopiperidin-3-yl)isoindoline-1,3-dione], for which the values for the EC50 in assay [1] and in assay [3] were less than 10 nM and less than 30 nM, respectively. In assay [2], this compound displayed an activation at 1 µM of 66 to 100%.
